Reference: doi:10.1101/2021.04.08.439011v1 (biorxiv, 2021)

Assays:
BUB1 = BUB1 (Homo sapiens, UniProt O43683); conditions: 1 µM; binder
DLK = DLK (Homo sapiens, UniProt Q12852); conditions: 1 µM; binder
TGFBR2 = TGFBR2 (Homo sapiens, UniProt P37173); conditions: 1 µM; binder
FYN = FYN (Homo sapiens, UniProt P06241); conditions: 1 µM; binder
FAK = FAK (Homo sapiens, UniProt Q05397); conditions: 1 µM; binder
AURKB = AURKB (Homo sapiens, UniProt Q96GD4); conditions: 1 µM; binder
CHEK2 = CHEK2 (Homo sapiens, UniProt O96017); conditions: 1 µM; binder
ABL1(E255K) = ABL1(E255K) (Homo sapiens, UniProt P00519, E255K); conditions: phosphorylated; 1 µM; binder
ABL1(M351T) = ABL1(M351T) (Homo sapiens, UniProt P00519, M351T); conditions: phosphorylated; 1 µM; binder
ERK3 = ERK3 (Homo sapiens, UniProt Q16659); conditions: 1 µM; binder
MST1R = MST1R (Homo sapiens, UniProt Q04912); conditions: 1 µM; binder
MYLK = MYLK (Homo sapiens, UniProt Q15746); conditions: 1 µM; binder
MELK = MELK (Homo sapiens, UniProt Q14680); conditions: 1 µM; binder
PIP5K1A = PIP5K1A (Homo sapiens, UniProt Q99755); conditions: 1 µM; binder
Sequence of PIP5K1A (Q99755 whole entry): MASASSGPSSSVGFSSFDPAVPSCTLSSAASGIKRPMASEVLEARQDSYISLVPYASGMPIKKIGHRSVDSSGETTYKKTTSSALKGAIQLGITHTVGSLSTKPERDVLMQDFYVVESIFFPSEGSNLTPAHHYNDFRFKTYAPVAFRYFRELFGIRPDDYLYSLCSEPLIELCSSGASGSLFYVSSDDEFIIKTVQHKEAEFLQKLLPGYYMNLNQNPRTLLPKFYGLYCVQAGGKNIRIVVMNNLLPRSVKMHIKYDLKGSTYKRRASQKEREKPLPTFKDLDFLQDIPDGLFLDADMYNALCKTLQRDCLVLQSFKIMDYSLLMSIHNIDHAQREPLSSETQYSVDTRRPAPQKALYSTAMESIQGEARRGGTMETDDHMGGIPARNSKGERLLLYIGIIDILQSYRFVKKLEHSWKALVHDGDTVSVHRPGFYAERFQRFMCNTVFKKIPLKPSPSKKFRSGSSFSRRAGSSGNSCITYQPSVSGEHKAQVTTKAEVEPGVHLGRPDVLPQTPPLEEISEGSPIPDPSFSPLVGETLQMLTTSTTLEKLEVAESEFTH

CAMK4 = CAMK4 (Homo sapiens, UniProt Q16566); conditions: 1 µM; binder
CSNK2A2 = CSNK2A2 (Homo sapiens, UniProt P19784); conditions: 1 µM; binder
Sequence of CSNK2A2 (P19784 whole entry): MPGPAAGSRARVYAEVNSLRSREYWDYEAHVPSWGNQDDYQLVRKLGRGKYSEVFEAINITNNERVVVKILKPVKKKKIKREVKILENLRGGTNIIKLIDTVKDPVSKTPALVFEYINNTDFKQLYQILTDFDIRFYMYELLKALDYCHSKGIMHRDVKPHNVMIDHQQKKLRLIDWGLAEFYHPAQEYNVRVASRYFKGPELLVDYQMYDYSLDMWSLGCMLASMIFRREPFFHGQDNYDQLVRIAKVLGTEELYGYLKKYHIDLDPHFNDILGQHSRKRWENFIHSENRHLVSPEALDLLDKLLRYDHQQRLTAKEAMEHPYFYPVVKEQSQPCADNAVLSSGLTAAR

HIPK2 = HIPK2 (Homo sapiens, UniProt Q9H2X6); conditions: 1 µM; binder
TRKB = TRKB (Homo sapiens, UniProt Q16620); conditions: 1 µM; binder
ITK = ITK (Homo sapiens, UniProt Q08881); conditions: 1 µM; binder
TIE1 = TIE1 (Homo sapiens, UniProt P35590); conditions: 1 µM; binder
FGR = FGR (Homo sapiens, UniProt P09769); conditions: 1 µM; binder
RAF1 = RAF1 (Homo sapiens, UniProt P04049); conditions: 1 µM; binder
Sequence of RAF1 (P04049 whole entry): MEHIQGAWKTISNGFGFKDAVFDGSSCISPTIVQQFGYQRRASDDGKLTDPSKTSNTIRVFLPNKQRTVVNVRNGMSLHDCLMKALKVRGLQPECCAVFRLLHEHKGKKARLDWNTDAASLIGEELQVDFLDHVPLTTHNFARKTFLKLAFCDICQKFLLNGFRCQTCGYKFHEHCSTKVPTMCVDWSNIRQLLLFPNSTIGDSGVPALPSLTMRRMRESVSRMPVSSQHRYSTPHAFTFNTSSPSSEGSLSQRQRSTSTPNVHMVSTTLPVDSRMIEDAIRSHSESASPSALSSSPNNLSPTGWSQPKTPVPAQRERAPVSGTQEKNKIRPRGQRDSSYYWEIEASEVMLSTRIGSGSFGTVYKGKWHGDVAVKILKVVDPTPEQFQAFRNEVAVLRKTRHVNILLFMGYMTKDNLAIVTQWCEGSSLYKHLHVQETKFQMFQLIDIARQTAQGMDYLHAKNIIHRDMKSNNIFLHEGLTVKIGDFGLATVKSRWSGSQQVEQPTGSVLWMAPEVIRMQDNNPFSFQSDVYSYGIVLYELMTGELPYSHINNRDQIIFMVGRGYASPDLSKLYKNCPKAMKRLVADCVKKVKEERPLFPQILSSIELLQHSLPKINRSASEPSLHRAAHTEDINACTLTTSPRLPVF

FGFR3 = FGFR3 (Homo sapiens, UniProt P22607); conditions: 1 µM; binder
PRKR = PRKR (Homo sapiens, UniProt P19525); conditions: 1 µM; binder
PRKG2 = PRKG2 (Homo sapiens, UniProt Q13237); conditions: 1 µM; binder
FLT3(N841I) = FLT3(N841I) (Homo sapiens, UniProt P36888, N841I); conditions: 1 µM; binder
SNARK = SNARK (Homo sapiens, UniProt Q9H093); conditions: 1 µM; binder
TRPM6 = TRPM6 (Homo sapiens, UniProt Q9BX84); conditions: 1 µM; binder
Sequence of TRPM6 (Q9BX84 whole entry): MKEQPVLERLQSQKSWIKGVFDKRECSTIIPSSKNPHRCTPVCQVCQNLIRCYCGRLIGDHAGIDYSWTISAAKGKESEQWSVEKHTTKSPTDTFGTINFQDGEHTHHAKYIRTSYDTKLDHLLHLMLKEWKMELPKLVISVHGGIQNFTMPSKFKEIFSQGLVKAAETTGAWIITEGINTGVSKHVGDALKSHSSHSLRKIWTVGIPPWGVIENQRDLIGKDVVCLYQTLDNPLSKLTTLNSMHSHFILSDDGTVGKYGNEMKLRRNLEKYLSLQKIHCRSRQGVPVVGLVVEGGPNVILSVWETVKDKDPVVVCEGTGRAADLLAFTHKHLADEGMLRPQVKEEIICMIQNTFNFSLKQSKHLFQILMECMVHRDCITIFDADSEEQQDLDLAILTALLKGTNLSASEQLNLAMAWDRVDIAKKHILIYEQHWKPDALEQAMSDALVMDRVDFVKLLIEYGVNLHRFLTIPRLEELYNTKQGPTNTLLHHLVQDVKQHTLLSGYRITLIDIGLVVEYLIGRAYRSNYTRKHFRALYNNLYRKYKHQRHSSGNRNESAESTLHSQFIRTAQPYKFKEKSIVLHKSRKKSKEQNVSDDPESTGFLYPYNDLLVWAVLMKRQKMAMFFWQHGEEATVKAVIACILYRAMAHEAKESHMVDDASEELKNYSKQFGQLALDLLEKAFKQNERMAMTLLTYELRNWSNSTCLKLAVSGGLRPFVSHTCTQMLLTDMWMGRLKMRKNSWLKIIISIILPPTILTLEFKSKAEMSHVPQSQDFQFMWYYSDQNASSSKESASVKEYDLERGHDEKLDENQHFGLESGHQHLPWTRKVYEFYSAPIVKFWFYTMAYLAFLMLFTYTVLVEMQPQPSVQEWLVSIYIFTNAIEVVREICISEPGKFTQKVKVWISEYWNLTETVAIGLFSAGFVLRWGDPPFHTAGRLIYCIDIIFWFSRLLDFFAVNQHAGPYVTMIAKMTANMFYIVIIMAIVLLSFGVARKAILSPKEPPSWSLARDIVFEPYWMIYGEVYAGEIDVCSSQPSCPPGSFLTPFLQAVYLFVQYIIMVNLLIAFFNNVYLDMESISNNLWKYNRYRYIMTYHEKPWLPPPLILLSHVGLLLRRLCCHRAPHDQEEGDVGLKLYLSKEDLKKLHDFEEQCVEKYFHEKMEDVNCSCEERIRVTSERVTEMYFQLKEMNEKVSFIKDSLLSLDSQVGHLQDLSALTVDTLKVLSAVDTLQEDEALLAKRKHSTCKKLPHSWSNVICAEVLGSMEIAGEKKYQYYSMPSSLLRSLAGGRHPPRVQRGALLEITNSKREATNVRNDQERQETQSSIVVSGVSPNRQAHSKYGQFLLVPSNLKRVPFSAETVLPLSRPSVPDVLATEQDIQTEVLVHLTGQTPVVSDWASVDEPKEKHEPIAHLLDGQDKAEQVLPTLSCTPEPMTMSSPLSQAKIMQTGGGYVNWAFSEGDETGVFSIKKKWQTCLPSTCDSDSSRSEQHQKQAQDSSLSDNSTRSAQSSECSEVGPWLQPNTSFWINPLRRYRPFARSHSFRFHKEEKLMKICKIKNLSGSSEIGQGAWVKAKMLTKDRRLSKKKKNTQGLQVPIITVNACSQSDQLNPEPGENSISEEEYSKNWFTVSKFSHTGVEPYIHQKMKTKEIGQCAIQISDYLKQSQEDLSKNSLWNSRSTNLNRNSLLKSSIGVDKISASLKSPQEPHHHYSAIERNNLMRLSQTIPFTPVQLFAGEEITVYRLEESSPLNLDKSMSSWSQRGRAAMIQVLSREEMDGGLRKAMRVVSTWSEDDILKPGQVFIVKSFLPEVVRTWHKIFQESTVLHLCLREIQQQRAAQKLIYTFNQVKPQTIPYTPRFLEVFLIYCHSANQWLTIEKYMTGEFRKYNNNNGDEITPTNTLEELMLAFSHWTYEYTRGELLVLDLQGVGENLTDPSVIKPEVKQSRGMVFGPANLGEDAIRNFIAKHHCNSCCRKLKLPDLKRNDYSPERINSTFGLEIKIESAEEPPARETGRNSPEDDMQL

SGK2 = SGK2 (Homo sapiens, UniProt Q9HBY8); conditions: 1 µM; binder
CAMKK1 = CAMKK1 (Homo sapiens, UniProt Q8N5S9); conditions: 1 µM; binder
Sequence of CAMKK1 (Q8N5S9 whole entry): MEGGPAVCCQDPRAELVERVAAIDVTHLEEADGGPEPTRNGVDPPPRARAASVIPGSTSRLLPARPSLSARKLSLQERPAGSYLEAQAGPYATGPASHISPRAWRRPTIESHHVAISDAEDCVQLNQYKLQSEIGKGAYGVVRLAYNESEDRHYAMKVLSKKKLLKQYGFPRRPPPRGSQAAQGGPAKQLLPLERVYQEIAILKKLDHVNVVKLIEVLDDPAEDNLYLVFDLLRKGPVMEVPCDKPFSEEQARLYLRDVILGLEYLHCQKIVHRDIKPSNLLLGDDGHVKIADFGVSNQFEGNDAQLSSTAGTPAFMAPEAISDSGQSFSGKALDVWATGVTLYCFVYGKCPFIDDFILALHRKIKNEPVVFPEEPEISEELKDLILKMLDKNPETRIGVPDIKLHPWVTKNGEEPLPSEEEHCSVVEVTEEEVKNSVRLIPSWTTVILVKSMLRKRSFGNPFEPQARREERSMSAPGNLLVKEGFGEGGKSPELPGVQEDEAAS

Sequence of AURKB (Q96GD4 whole entry): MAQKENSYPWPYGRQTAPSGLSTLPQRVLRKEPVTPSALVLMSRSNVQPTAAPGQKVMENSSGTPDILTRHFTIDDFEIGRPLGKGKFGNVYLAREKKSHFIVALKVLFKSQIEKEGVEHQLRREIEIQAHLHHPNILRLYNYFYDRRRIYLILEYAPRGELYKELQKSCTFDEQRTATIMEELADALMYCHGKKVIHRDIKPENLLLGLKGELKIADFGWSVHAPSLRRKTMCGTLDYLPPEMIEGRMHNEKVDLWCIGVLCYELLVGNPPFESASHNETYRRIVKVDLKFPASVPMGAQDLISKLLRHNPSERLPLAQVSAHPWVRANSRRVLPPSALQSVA
Sequence of TGFBR2 (P37173 whole entry): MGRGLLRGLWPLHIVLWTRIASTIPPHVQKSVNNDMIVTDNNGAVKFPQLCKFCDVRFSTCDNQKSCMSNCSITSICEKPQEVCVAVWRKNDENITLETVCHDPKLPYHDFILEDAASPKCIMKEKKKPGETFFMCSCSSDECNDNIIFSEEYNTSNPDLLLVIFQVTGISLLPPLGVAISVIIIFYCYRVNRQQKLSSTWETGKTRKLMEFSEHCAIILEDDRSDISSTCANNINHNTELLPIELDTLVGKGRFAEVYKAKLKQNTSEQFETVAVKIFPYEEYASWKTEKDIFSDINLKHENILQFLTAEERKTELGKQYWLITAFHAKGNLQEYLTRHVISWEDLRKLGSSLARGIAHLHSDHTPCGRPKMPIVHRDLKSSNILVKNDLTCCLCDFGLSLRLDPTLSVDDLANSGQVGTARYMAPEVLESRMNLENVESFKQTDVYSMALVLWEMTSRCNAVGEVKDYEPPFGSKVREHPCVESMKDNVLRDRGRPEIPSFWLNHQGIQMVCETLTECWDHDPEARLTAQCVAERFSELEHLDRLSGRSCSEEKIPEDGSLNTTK

CNc1ncc2cc(-c3ccc(-c4cccc(C)n4)cc3Cl)c(=O)n(C[C@H]3OC[C@H](N)CO3)c2n1 [compound 6, G-5555]
Percent Control (BUB1): 89%
Percent Control (DLK): 100%
Percent Control (TGFBR2): 100%
Percent Control (FYN): 87%
Percent Control (FAK): 100%
Percent Control (AURKB): 23%
Percent Control (CHEK2): 100%
Percent Control (ABL1(E255K)): 100%
Percent Control (ABL1(M351T)): 100%
Percent Control (ERK3): 100%
Percent Control (MST1R): 48%
Percent Control (MYLK): 85%
Percent Control (MELK): 47%
Percent Control (PIP5K1A): 67%
Percent Control (CAMK4): 96%
Percent Control (CSNK2A2): 95%
Percent Control (HIPK2): 100%
Percent Control (TRKB): 100%
Percent Control (ITK): 100%
Percent Control (TIE1): 94%
Percent Control (FGR): 100%
Percent Control (RAF1): 100%
Percent Control (FGFR3): 100%
Percent Control (PRKR): 94%
Percent Control (PRKG2): 94%
Percent Control (FLT3(N841I)): 97%
Percent Control (SNARK): 2%
Percent Control (TRPM6): 100%
Percent Control (SGK2): 100%
Percent Control (CAMKK1): 100%
